Read-outs that look alike come from different tables or passages of the source. Each block holds one compound with its values, some of them ahead of it.
How the values were obtained:
Assay type in all cases: cell-based
[1] = tested on: MKN1 cells; test: MKN1 tumor cell growth inhibition (CellTiterGlo); conditions: MKN1, Gastric cancer, 4 days culture
Description: (§2) First, EJ-1, 786-0, MKN1, OST, PC-3, PK-1, LK-2, G-361, TFK-1, MRK-nu-1 were cultured in RPMI1640 medium supplemented with 10% calf serum at 37° C. under 5% CO2 atmosphere while maintaining log phase. The cells were recovered by a conventional EDTA trypsin treatment, and centrifuged at 1,700 rpm, 4° C. for 5 min. The supernatant was removed, and suspended in RPMI1640 medium supplemented with 10% calf serum to 500 cells/50 μl. On the other hand, 10 mM stock solution of compound 7 which is a bisphosphonic acid POM ester derivative was serially diluted 2-fold from 200 pM. In addition, 10 mM stock solution of compound 14 which is bisphosphonic acid was serially diluted 2-fold from 2 mM. Then, the cell suspension (50 μl, 500 cells) and the compound solution (50 μl) were added to a flat-bottomed 96 well plate and cultured at 37° C. under 5% CO2 atmosphere for 4 days. Then, 100 μl of CellTiterGlo solution was added, and the mixture was pipetted 10 strokes, and transferred to a 96 well OptiPlate. After standing at room temperature for 10 min, the luminescence was measured by a luminometer and IC50 value was calculated.

[2] = tested on: OST cells; test: OST tumor cell growth inhibition (CellTiterGlo); conditions: Osteosarcoma, 4 days culture
Description: as §2

[3] = tested on: PC-3 cells; test: PC-3 tumor cell growth inhibition (CellTiterGlo); conditions: PC-3, Prostate cancer, 4 days culture
Description: as §2

[4] = tested on: PK-1 cells; test: PK-1 tumor cell growth inhibition (CellTiterGlo); conditions: PK-1, Pancreatic cancer, 4 days culture
Description: as §2

[5] = tested on: LK-2 cells; test: LK-2 tumor cell growth inhibition (CellTiterGlo); conditions: LK-2, Lung cancer, 4 days culture
Description: as §2

[6] = tested on: G-361 cells; test: G-361 tumor cell growth inhibition (CellTiterGlo); conditions: G-361, Melanoma, 4 days culture
Description: as §2

[7] = tested on: MRK-nu-1 cells; test: MRK-nu-1 tumor cell growth inhibition (CellTiterGlo); conditions: MRK-nu-1, Mammary carcinoma, 4 days culture
Description: as §2

[8] = tested on: THP-1 cells; test: THP-1 tumor cell growth inhibition (CellTiterGlo); conditions: THP-1, Acute monocytic leukemia, 4 days culture
Description: (§3) To quantitatively study an action of compound 7, which is a bisphosphonic acid POM ester derivative, on various hematologic tumor-derived lymphoma and myeloidic leukemia cells, the concentration of a compound that inhibits cell proliferation to half was calculated as IC50, and a direct antitumor effect was studied from the value thereof. […] First, MOLT-4, THP-1, SCC-3, PEER, RAMOS-RA1, C1R, MOLT-3, Raji, U937, K562, Daudi were cultured in RPMI1640 medium supplemented with 10% calf serum at 37° C. under 5% CO2 atmosphere while maintaining log phase. The cells were recovered, and centrifuged at 1,700 rpm, 4° C. for 5 min. The supernatant was removed, and suspended in RPMI1640 medium supplemented with 10% calf serum to 500 cells/50 μl. On the other hand, 10 mM stock solution of compound 7 which is a bisphosphonic acid POM ester derivative was serially diluted 2-fold from 200 μM. In addition, 10 mM stock solution of compound 14 which is bisphosphonic acid was serially diluted 2-fold from 2 mM. Then, the cell suspension (50 μl, 500 cells) and the compound solution (50 μl) were added to a flat-bottomed 96 well plate and cultured at 37° C. under 5% CO2 atmosphere for 4 days. Then, 100 μl of CellTiterGlo solution was added, and the mixture was pipetted 10 strokes, and transferred to a 96 well OptiPlate. […]

[9] = tested on: C1R cells; test: C1R tumor cell growth inhibition (CellTiterGlo); conditions: B cell lymphoma, 4 days culture
Description: as §3

[10] = tested on: Daudi cells; test: Daudi tumor cell growth inhibition (CellTiterGlo); conditions: Burkitt's lymphoma, 4 days culture
Description: as §3

[11] = tested on: PC-3 cells / γδ T cells; test: TNF-α production from γδ T cells stimulated by compound-pretreated PC-3 cells; conditions: PC-3, Prostate cancer, 4 hr pretreatment, 16 hr with γδ T cells, read-out: TNF-α50
Description: (§1) Since the above-mentioned results of Experimental Example confirm that the activity of bisphosphonic acids becomes high by POM esterification in various tumor cells, the TNF-α production induction ability of more number of tumor cells was quantitatively studied. […] Thereto was added a solution (500 μl) of compound 7 obtained by serially diluting 10 mM stock solution 10-fold from 20 μM, or a solution (500 μl) of compound 14 obtained by serially diluting 10 mM stock solution 10-fold from 200 μM, and the cells were suspended well. These conical tubes were stood at 37° C. for 4 hr, and the cells were washed 3 times with 5 ml of culture medium. To these cells was added 500 μl of medium, and the cells were suspended well. […] The cell culture medium was suspended well, and the plate was centrifuged at 1,700 rpm, 4° C. for 2 min and the culture supernatant (150 μl) was taken and placed in another round-bottomed 96 well plate. The plate was frozen at −80° C. overnight, left standing at room temperature for 1 hr, stirred well and 100 μl thereof was subjected to ELISA of TNF-α. The content of TNF-α was calculated from the analytical curve of TNF-α. These were performed in triplicate, and TNF-α50 of bisphosphonic acid POM ester derivative (compound 7) and bisphosphonic acid (compound 14) was calculated and summarized in Table 8.

[12] = tested on: G-361 cells / γδ T cells; test: TNF-α production from γδ T cells stimulated by compound-pretreated G-361 cells; conditions: G-361, Melanoma, 4 hr pretreatment, 16 hr with γδ T cells, read-out: TNF-α50
Description: as §1

[13] = tested on: TFK-1 cells / γδ T cells; test: TNF-α production from γδ T cells stimulated by compound-pretreated TFK-1 cells; conditions: TFK-1, Cholangiocarcinoma, 4 hr pretreatment, 16 hr with γδ T cells, read-out: TNF-α50
Description: as §1

[14] = tested on: K562 cells / γδ T cells; test: TNF-α production from γδ T cells stimulated by compound-pretreated K562 cells; conditions: K562, Erythrocytoma, 4 hr pretreatment, 16 hr with γδ T cells, read-out: TNF-α50
Description: as §1

[15] = tested on: SCC-3 cells / γδ T cells; test: TNF-α production from γδ T cells stimulated by compound-pretreated SCC-3 cells; conditions: SCC-3, Non-Hodgkin's lymphoma, 4 hr pretreatment, 16 hr with γδ T cells, read-out: TNF-α50
Description: as §1

[16] = tested on: THP-1 cells / γδ T cells; test: TNF-α production from γδ T cells stimulated by compound-pretreated THP-1 cells; conditions: THP-1, Acute monocytic leukemia, 4 hr pretreatment, 16 hr with γδ T cells, read-out: TNF-α50
Description: as §1

[17] = tested on: Raji cells / γδ T cells; test: TNF-α production from γδ T cells stimulated by compound-pretreated Raji cells; conditions: Burkitt's lymphoma, 4 hr pretreatment, 16 hr with γδ T cells, read-out: TNF-α50
Description: as §1

[18] = tested on: HMC-1-8 cells / γδ T cells; test: TNF-α production from γδ T cells stimulated by compound-pretreated HMC-1-8 cells; conditions: HMC-1-8, Mammary carcinoma, 4 hr pretreatment, 16 hr with γδ T cells, read-out: TNF-α50
Description: as §1

[19] = tested on: MRK-nu-1 cells / γδ T cells; test: TNF-α production from γδ T cells stimulated by compound-pretreated MRK-nu-1 cells; conditions: MRK-nu-1, Mammary carcinoma, 4 hr pretreatment, 16 hr with γδ T cells, read-out: TNF-α50
Description: as §1

IC50 ([1]; Homo sapiens, MKN-1, 96 h): 100000 nM | IC50 ([2]; 96 h): 66000 nM | IC50 ([3]; Homo sapiens, 96 h): 100000 nM | IC50 ([4]; 96 h): 110000 nM | IC50 ([5]; Homo sapiens, 96 h): 35000 nM | IC50 ([6]; Homo sapiens, 96 h): 20000 nM | IC50 ([7]; Homo sapiens, 96 h): 210000 nM | IC50 ([8]; Homo sapiens, 96 h): 130000 nM | IC50 ([9]; 96 h): 79000 nM | IC50 ([10]; Homo sapiens, 96 h): 76000 nM | EC50 ([11]; Homo sapiens): 77000 nM | EC50 ([12]; Homo sapiens): 5100 nM | EC50 ([13]; T-cell): > 100000 nM | EC50 ([14]; Homo sapiens): > 100000 nM | EC50 ([15]; Homo sapiens): > 100000 nM | EC50 ([16]; Homo sapiens): > 100000 nM | EC50 ([17]; Homo sapiens): > 100000 nM | EC50 ([18]; T-cell): > 100000 nM | EC50 ([19]; Homo sapiens): > 100000 nM
SMILES: O=P(O)(O)C(CNc1nccs1)P(=O)(O)O [Compound 14, 2-(thiazol-2-ylamino)ethylidene-1,1-bisphosphonic Acid, reference compound]

SMILES: CC(C)(C)C(=O)OCOP(=O)(OCOC(=O)C(C)(C)C)C(CNc1nccs1)P(=O)(OCOC(=O)C(C)(C)C)OCOC(=O)C(C)(C)C [Compound 7, tetrakispivaloyloxymethyl 2-(thiazol-2-ylamino) ethylidene-1,1-bisphosphonate]
IC50 [1]: 1200 nM | IC50 [2]: 810 nM | IC50 [3]: 220 nM | IC50 [4]: 340 nM | IC50 [5]: 800 nM | IC50 [6]: 120 nM | IC50 [7]: 740 nM | IC50 [8]: 35 nM | IC50 [9]: 78 nM | IC50 [10]: 430 nM | EC50 [11]: 65 nM | EC50 [12]: 63 nM | EC50 [13]: 66 nM | EC50 [14]: 80 nM | EC50 [15]: 81 nM | EC50 [16]: 300 nM | EC50 [17]: 53 nM | EC50 [18]: 920 nM | EC50 [19]: 180 nM
